One block for each molecule: values may come before it.
What was measured:
CXCR4 = CXCR4 (Homo sapiens, UniProt P61073); conditions: cited from earlier work
[1] = tested on: fibroblast growth and collagen synthesis; conditions: cited from earlier work
[2] = tested on: human malignant glioma cells; conditions: cited from earlier work
leiomyoma cell = conditions: cultured cells; cited from earlier work
[3] = mouse, in vivo, po, 10 mg/kg
Experimental: The purpose of this single-dose PK study was to evaluate the in vivo drug release of Can-DPC in 4T1 tumor bearing animals by collecting whole blood, tumor, and liver tissue for bioanalytical quantification of polymer-conjugated and released drug (i.e., candesartan). In this example, the Can-DPC formulation (10 mg/kg) was administrated intravenously as a single bolus and compared directly with the PK profile of candesartan cilexetil administrated by oral gavage (10 mg/kg) using 0.5% HPMC as a vehicle (Table 5).
The mammary fat pads of Balb/C female mice (6-8 weeks old; Taconic) were implanted with syngeneic 4T1 mouse tumor cells (150,000 cells/per animal) obtained from ATCC. Tumors were allowed to develop for 10 days, reaching an average size of 150-450 mm^3 (caliper measurements), before the mice were randomized into three dose groups (Table 5). Following a single administration of the test agents (10 mg/kg) or vehicle alone, whole blood, tumor, and liver tissues were collected at 2, 24, 48 and 144 hrs post dose. In addition, intermediate submandibular bleeds (˜100 μL whole blood) were collected at 5 min, 30 min, 4 hrs, and 6 hrs (n=3 animals per timepoint) following the i.v. and p.o. dosing. […]

Chain of CXCR4 (P61073 whole entry, species assumed): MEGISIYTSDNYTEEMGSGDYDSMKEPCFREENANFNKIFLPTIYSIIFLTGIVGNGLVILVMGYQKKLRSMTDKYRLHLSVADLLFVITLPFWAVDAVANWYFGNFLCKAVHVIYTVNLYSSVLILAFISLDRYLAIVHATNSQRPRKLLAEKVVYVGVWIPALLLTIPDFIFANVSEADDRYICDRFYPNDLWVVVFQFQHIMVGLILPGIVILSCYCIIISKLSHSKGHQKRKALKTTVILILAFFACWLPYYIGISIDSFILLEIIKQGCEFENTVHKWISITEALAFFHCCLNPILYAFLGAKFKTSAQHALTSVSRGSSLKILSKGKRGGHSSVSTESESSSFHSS

SMILES: c1cc(CN2CCCNCCNCCCNCC2)ccc1CN1CCCNCCNCCCNCC1 [AMD3100, 1,1′-[1,4-phenylene-bis(methylene)]-bis-1,4,8,11-tetraazacyclotetradecane]
fibrosis (CXCR4): can reduce fibrosis

SMILES: Cc1ccc(=O)n(-c2ccccc2)c1 [PFD, 5-methyl-1-phenyl-2(1H)-pyridone]
fibroblast growth and collagen synthesis [1]: inhibitory effect on fibroblast growth and collagen synthesis
TGF-b expression [2]: reduce TGF-b expression in human malignant glioma cells
leiomyoma cell proliferation and collagen production (leiomyoma cell): reduce leiomyoma cell proliferation and collagen production in cultured cells

candesartan in liver [3]: non-detectable
SMILES: CCOc1nc2cccc(C(=O)OC(C)OC(=O)OC3CCCCC3)c2n1Cc1ccc(-c2ccccc2-c2nn[nH]n2)cc1 (centres unmarked) [candesartan cilexetil]

From US11433136B2, “Polyacetal polymers, conjugates, particles and uses thereof” (THE GENERAL HOSPITAL CORPORATION, priority 2015, dated 2022)
